Laboratory results taken from ChEMBL document CHEMBL1909294, “Translating clinical findings into knowledge in drug safety evaluation--drug induced liver injury prediction system (DILIps)” (PLoS Comput Biol, 2011).

Columns and labels:
Hepatotoxicity [1] = system: Hepatotoxicity;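 on HepSE bilirubinemia: bilirubinemia hepatic side effect score drawn from the DILIps training data, a prediction system for drug-induced liver injury; call rule not given here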;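 on HepSE cholecystitis: Cholecystitis-related hepatic side effect score drawn from the DILIps (drug-induced liver injury prediction) training data set; call rule not given here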;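 on HepSE cholelithiasis: hepatic side effect score for cholelithiasis, drawn from the DILIps training data for predicting drug-induced liver injury; call rule not given here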;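 on HepSE cirrhosis: cirrhosis hepatic side effect score taken from the DILIps (drug-induced liver injury prediction) training set; call rule not given here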;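 on HepSE elevated liver function tests: hepatic side effect score for raised liver function tests, as recorded in the DILIps training set used for predicting drug-induced liver injury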; on HepSE hepatic failure: call rule not given here;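 on HepSE hepatomegaly: hepatic side effect score for hepatomegaly, taken from the training set of the DILIps drug-induced liver injury prediction system; call rule not given here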
Hepatotoxicity [2] = system: Hepatotoxicity; remark: listed apart in the source;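 on HepSE bilirubinemia: bilirubinemia hepatic side effect score drawn from the DILIps training data, a prediction system for drug-induced liver injury; call rule not given here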;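 on HepSE cholecystitis: Cholecystitis-related hepatic side effect score drawn from the DILIps (drug-induced liver injury prediction) training data set; call rule not given here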;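 on HepSE cholelithiasis: hepatic side effect score for cholelithiasis, drawn from the DILIps training data for predicting drug-induced liver injury; call rule not given here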;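 on HepSE cirrhosis: cirrhosis hepatic side effect score taken from the DILIps (drug-induced liver injury prediction) training set; call rule not given here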;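 on HepSE elevated liver function tests: hepatic side effect score for raised liver function tests, as recorded in the DILIps training set used for predicting drug-induced liver injury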; on HepSE hepatic failure: call rule not given here;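 on HepSE hepatomegaly: hepatic side effect score for hepatomegaly, taken from the training set of the DILIps drug-induced liver injury prediction system; call rule not given here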
Hepatotoxicity [3] = system: Hepatotoxicity; remark: listed apart in the source;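 on HepSE bilirubinemia: bilirubinemia hepatic side effect score drawn from the DILIps training data, a prediction system for drug-induced liver injury; call rule not given here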;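 on HepSE cholecystitis: Cholecystitis-related hepatic side effect score drawn from the DILIps (drug-induced liver injury prediction) training data set; call rule not given here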;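 on HepSE cholelithiasis: hepatic side effect score for cholelithiasis, drawn from the DILIps training data for predicting drug-induced liver injury; call rule not given here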;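 on HepSE cirrhosis: cirrhosis hepatic side effect score taken from the DILIps (drug-induced liver injury prediction) training set; call rule not given here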;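 on HepSE elevated liver function tests: hepatic side effect score for raised liver function tests, as recorded in the DILIps training set used for predicting drug-induced liver injury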; on HepSE hepatic failure: call rule not given here
Hepatotoxicity [4] = system: Hepatotoxicity; remark: listed apart in the source;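 on HepSE bilirubinemia: bilirubinemia hepatic side effect score drawn from the DILIps training data, a prediction system for drug-induced liver injury; call rule not given here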;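 on HepSE cholecystitis: Cholecystitis-related hepatic side effect score drawn from the DILIps (drug-induced liver injury prediction) training data set; call rule not given here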;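 on HepSE cholelithiasis: hepatic side effect score for cholelithiasis, drawn from the DILIps training data for predicting drug-induced liver injury; call rule not given here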;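 on HepSE cirrhosis: cirrhosis hepatic side effect score taken from the DILIps (drug-induced liver injury prediction) training set; call rule not given here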;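 on HepSE elevated liver function tests: hepatic side effect score for raised liver function tests, as recorded in the DILIps training set used for predicting drug-induced liver injury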; on HepSE hepatic failure: call rule not given here
Hepatotoxicity [5] = system: Hepatotoxicity; remark: listed apart in the source; on HepSE hepatic failure: call rule not given here
Hepatotoxicity [6] = system: Hepatotoxicity; remark: listed apart in the source; on HepSE hepatic failure: call rule not given here
Hepatotoxicity [7] = system: Hepatotoxicity; remark: listed apart in the source
Hepatotoxicity [8] = system: Hepatotoxicity; remark: listed apart in the source
Hepatotoxicity [9] = system: Hepatotoxicity; remark: listed apart in the source
Hepatotoxicity [10] = system: Hepatotoxicity; remark: listed apart in the source
Hepatotoxicity [11] = system: Hepatotoxicity; remark: listed apart in the source
Hepatotoxicity [12] = system: Hepatotoxicity; remark: listed apart in the source
Hepatotoxicity [13] = system: Hepatotoxicity; remark: listed apart in the source
Hepatotoxicity [14] = system: Hepatotoxicity; remark: listed apart in the source

| Compound | HepSE_bilirubinemia (Hepatotoxicity [1]) | HepSE_cholecystitis (Hepatotoxicity [2]) | HepSE_cholelithiasis (Hepatotoxicity [3]) | HepSE_cirrhosis (Hepatotoxicity [4]) | HepSE_elevated liver function tests (Hepatotoxicity [5]) | HepSE_hepatic failure (Hepatotoxicity [6]) | HepSE_hepatic necrosis (Hepatotoxicity [7]) | HepSE_hepatitis (Hepatotoxicity [8]) | HepSE_hepatomegaly (Hepatotoxicity [9]) | HepSE_jaundice (Hepatotoxicity [10]) | HepSE_liver disease (Hepatotoxicity [11]) | HepSE_liver fatty (Hepatotoxicity [12]) | HepSE_liver function tests abnormal (Hepatotoxicity [13]) | HepSE_Combined Scores (Hepatotoxicity [14]) | further results |
| --- | --- | --- | --- | --- | --- | --- | --- | --- | --- | --- | --- | --- | --- | --- | --- |
| COc1ccccc1Oc1c(NS(=O)(=O)c2ccc(C(C)(C)C)cc2)nc(-c2ncccn2)nc1OCCO [BOSENTAN] | 0 | 0 | 0 | 1 | 0 | 1 | 0 | 1 | 0 | 1 | 0 | 0 | 0 | 4 | – |
| CC[N+](C)(C)Cc1ccccc1Br [BRETYLIUM] | 0 | 0 | 0 | 0 | 0 | 0 | 0 | 0 | 0 | 0 | 0 | 0 | 0 | 0 | – |
| Brc1c(NC2=NCCN2)ccc2nccnc12 [BRIMONIDINE] | – | – | – | – | – | – | – | – | – | – | – | – | – | – | HepSE_bilirubinemia (Hepatotoxicity [1]; Liver): 0; HepSE_cholecystitis (Hepatotoxicity [2]; Liver): 0; HepSE_cholelithiasis (Hepatotoxicity [3]; Liver): 0; HepSE_cirrhosis (Hepatotoxicity [4]; Liver): 0; HepSE_elevated liver function tests (Hepatotoxicity [5]; Liver): 0; HepSE_hepatic failure (Hepatotoxicity [6]; Liver): 0; HepSE_hepatic necrosis (Hepatotoxicity [7]; Liver): 0; HepSE_hepatitis (Hepatotoxicity [8]; Liver): 0; HepSE_hepatomegaly (Hepatotoxicity [9]; Liver): 0; HepSE_jaundice (Hepatotoxicity [10]; Liver): 0; HepSE_liver disease (Hepatotoxicity [11]; Liver): 0; HepSE_liver fatty (Hepatotoxicity [12]; Liver): 0; HepSE_liver function tests abnormal (Hepatotoxicity [13]; Liver): 0; HepSE_Combined Scores (Hepatotoxicity [14]; Liver): 0 |
| CCN[C@H]1CN(CCCOC)S(=O)(=O)c2sc(S(N)(=O)=O)cc21 [BRINZOLAMIDE] | 0 | 0 | 0 | 0 | 0 | 0 | 0 | 0 | 0 | 0 | 0 | 0 | 0 | 0 | – |
| O=C1CN=C(c2ccccn2)c2cc(Br)ccc2N1 [BROMAZEPAM] | 0 | 0 | 0 | 0 | 0 | 0 | 0 | 0 | 0 | 0 | 0 | 0 | 0 | 0 | – |
| CC(C)C[C@H]1C(=O)N2CCC[C@H]2[C@]2(O)O[C@](NC(=O)[C@@H]3C=C4c5cccc6[nH]c(Br)c(c56)C[C@H]4N(C)C3)(C(C)C)C(=O)N12 [BROMOCRIPTINE] | 0 | 0 | 0 | 0 | 0 | 0 | 0 | 0 | 0 | 0 | 0 | 0 | 0 | 0 | – |
| CCCC1O[C@@H]2C[C@H]3[C@@H]4CCC5=CC(=O)C=C[C@]5(C)[C@H]4[C@@H](O)C[C@]3(C)[C@]2(C(=O)CO)O1 (some centres not stated) [BUDESONIDE] | 0 | 0 | 0 | 0 | 0 | 0 | 0 | 0 | 0 | 0 | 0 | 0 | 0 | 0 | – |
| CCCCNc1cc(C(=O)O)cc(S(N)(=O)=O)c1Oc1ccccc1 [BUMETANIDE] | 0 | 0 | 0 | 0 | 0 | 0 | 0 | 0 | 0 | 0 | 1 | 0 | 0 | 1 | – |
